The target of test [1] is 6xHis-p300-BRD (active motif #31372) (UniProt Q09472). The test is described as follows: AlphaScreen, GST-FKBP12^F36V and 6xHis-p300-BRD with a titration of the small molecule AceTAG-1; bell-shaped curve. A general note: Alpha assays give light when donor and acceptor beads are brought close together.
For the next test, the target named is T1, H3.3-FKBP12^F36V (Homo sapiens, UniProt P62942+Q09472, F37V).
T1 construct: expressed in transfected cells
Put plainly: Immunoblot analysis of H3.3-FKBP12^F36V acetylation in HeLa cells. The class given is cell-based. To be noted: for acetylation of H3.3: HeLa cells, FIG. 8. On the procedure:
(§1) Lentivirus Production and Transduction: Lentiviral production was performed using HEK293T cells, which were co-transfected with pMD2.G (Addgene, #12259), psPAX2 (Addgene, #12260), and AceTAG lentiviral plasmids using PEI (Polysciences Inc). Viral particles were collected 72 h after transfection and filtered through a […] membrane. A range of dilutions of the lentivirus in DMEM complete and 10 μg/mL polybrene were added to HeLa, H1299, or HeLa RelA KO cell lines. Transduced cells were selected with 1 μg/mL or 2 μg/mL puromycin.
(§2) Immunoblotting: Cells were harvested in cold DPBS by scraping and washed with cold DPBS twice. Cell pellets were resuspended in DPBS supplemented with 5 mM sodium butyrate, 20 mM Nicotinamide, and 1X Halt Protease Inhibitor Cocktail and lysed by sonication (15 ms on, 40 ms off, 15% amplitude, 1s total on x 3). Protein concentration was determined using DC Protein Assay (Bio-Rad) and absorbance read using a CLARIOstar plate reader following manufacturer's instructions. Samples with equal protein content were boiled in 4X SDS gel loading buffer for 10 min. Proteins were separated by 10%, 12.5%, or 15% SDS-polyacrylamide gel electrophoresis and transferred to PVDF membranes using Trans-Blot Turbo RTA Mini […] LF PVDF Transfer Kit (Bio-Rad). Membranes were incubated for 1 h at room temperature with blocking buffer, followed by incubating overnight at 4° C. with primary antibodies. After washing in TBST, the secondary antibodies were incubated with the membranes at room temperature for 1 h. The membranes were washed with TBST for three times and visualized on a Bio-Rad ChemiDoc MP Imaging System with Clarity Max Western ECL substrate (Bio-Rad) or SuperSignal West Femto Chemiluminescent substrate proprietary luminol and peroxide solution kit (Thermo Scientific Pierce).

For test [2], the system named is p21 (CDKNIA), PUMA, MDM2, and GLS2. Put plainly: Immunoblot of p53 target gene expression in FKBP12^F36V-p53 H1299 cells. The class given is cell-based, Human. To be noted: 8 hr; for effect of co-treatment on AceTAG-1 induced p21 expression: 3 μM AceTAG-1 with 10 μM A485 or 50 μM FKBP12^F36V-binding ligand, FIG. 7E. As to the method:
as §2
A general note: A western blot detects proteins with antibodies after separation by electrophoresis.

Test [3] concerns T2, FKBP12^F36V-p53 (Homo sapiens, F37V).
T2 construct: expressed in transfected cells
T2 sequence (P62942 2-108 F37V limits assumed): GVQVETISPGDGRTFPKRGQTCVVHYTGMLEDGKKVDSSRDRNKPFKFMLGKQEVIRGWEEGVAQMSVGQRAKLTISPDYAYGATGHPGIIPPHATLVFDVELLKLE
T2 sequence (Q09472 2-2414 limits assumed, stated change not applied, further chain): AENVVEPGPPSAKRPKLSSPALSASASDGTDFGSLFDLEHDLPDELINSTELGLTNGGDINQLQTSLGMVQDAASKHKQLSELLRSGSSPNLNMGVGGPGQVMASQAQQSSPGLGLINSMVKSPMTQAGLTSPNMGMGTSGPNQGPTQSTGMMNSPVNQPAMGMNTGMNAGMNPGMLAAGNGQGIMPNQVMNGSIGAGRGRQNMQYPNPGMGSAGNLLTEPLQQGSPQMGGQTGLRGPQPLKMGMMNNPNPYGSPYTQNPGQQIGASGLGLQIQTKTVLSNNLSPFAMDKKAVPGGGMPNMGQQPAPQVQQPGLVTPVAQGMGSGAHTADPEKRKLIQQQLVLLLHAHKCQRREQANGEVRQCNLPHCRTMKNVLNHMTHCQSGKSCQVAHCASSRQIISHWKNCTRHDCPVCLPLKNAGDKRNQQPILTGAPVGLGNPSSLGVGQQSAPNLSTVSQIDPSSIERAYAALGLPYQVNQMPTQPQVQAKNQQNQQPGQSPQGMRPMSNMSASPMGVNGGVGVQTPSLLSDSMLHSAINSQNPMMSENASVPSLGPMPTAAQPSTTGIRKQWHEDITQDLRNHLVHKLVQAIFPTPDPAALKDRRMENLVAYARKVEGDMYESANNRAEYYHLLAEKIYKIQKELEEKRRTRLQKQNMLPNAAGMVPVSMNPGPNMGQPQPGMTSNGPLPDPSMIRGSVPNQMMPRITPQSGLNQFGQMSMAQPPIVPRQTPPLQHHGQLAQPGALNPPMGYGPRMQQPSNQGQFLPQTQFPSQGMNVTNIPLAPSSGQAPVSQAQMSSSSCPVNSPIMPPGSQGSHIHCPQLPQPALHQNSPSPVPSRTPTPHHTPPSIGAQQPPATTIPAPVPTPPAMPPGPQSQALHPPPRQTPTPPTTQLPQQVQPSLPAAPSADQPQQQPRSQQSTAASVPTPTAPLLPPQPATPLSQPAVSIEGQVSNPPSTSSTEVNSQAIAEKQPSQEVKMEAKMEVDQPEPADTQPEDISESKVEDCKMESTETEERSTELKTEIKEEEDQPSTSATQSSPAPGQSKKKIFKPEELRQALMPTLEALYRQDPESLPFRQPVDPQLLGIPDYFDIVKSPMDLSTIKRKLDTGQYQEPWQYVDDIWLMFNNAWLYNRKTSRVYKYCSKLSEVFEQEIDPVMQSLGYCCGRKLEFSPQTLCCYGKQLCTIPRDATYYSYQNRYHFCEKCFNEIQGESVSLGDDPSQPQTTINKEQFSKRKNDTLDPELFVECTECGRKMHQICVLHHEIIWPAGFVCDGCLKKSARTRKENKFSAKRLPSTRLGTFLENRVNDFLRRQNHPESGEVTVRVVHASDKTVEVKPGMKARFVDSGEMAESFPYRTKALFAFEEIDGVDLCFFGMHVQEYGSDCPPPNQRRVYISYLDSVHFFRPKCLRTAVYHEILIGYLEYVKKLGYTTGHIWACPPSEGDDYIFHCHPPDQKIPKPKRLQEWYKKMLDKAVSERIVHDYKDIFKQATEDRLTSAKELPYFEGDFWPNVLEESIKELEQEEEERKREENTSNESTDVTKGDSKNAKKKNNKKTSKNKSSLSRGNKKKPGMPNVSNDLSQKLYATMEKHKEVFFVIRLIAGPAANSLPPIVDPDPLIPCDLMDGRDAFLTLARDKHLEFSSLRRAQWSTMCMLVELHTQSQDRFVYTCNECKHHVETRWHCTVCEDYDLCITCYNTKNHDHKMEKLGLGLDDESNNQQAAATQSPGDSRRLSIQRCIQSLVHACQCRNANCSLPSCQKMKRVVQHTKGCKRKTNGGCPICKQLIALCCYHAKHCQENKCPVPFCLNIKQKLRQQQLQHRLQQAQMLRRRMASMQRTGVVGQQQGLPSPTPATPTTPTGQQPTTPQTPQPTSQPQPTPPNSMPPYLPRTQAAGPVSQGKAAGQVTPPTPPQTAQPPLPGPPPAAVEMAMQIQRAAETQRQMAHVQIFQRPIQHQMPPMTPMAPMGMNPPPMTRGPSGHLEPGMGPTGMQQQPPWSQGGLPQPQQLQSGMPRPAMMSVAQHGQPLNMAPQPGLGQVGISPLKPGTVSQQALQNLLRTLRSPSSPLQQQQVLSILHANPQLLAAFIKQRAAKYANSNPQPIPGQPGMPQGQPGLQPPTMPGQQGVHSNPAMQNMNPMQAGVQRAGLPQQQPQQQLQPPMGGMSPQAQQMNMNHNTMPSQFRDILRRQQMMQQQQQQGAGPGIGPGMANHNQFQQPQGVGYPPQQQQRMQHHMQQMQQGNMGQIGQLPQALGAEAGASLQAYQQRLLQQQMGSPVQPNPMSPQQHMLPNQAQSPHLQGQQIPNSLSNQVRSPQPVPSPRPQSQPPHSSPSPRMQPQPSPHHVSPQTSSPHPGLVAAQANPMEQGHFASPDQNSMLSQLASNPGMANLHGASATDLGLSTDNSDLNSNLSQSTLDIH
Put plainly: Immunoblot analysis of FKBP12^F36V-p53 acetylation in H1299 cells. The class given is cell-based. To be noted: 625 nM AceTAG-1 with 50 μM FKBP ligand or 1 μM A485, 2 hr, FIG. 6D. As to the method: as §1, §2

The subject of test [4] is T3, FKBP12^F36V-RelA (Homo sapiens, F37V).
T3 construct: expressed in transfected cells
Put plainly: Immunoblot analysis of FKBP12^F36V-RelA acetylation in RelA-/- HeLa cells. The class given is cell-based. To be noted: 625 nM AceTAG-1 with 50 μM FKBP ligand or 1 μM A485, 2 hr, FIG. 6B. As to the method:
as §1, §2

The subject of test [5] is H3.3-FKBP12^F36V HeLa cells. The test is described as follows: Quantitative acetylproteomics of H3.3-FKBP12^F36V HeLa cells. The class given is cell-based, Human. To be noted: 2 μM SAHA, FIG. 5E. On the procedure: Sample preparation: Frozen cell pellets were thawed on ice and lysed in a buffer containing 50 mM Tris-HCl (pH 7.5), 150 mM NaCl, 1 mM EDTA, 1% NP-40, 0.1% sodium deoxycholate, 5 mM sodium butyrate, 10 mM nicotinamide and 1X Pierce™ protease inhibitor cocktail. Cells were sonicated to ensure complete lysis, mixed with 5 M NaCl at a ratio of 1:10 with sample volume and incubated on ice for 15 min to release chromatin-bound proteins. Cell lysates were then sonicated again to shear genomic DNA. Cellular debris was cleared by centrifugation at 16,000 g for 20 min at 4° C., protein concentration was determined using a Pierce™ BCA assay and ˜10 mg of protein was aliquoted for acetyl-proteomic analysis. Proteins were denatured with 8 M urea in 50 mM HEPES, reduced with 5 mM dithiothreitol for 30 min at 56° C., then alkylated with 5 mM iodoacetamide for 20 min in the dark at RT. Following alkylation, proteins were precipitated using chloroform-methanol as previously described, and protein pellets were dried at 56° C. for 15 min. Proteins pellets were resuspended in 1 M urea in 50 mM HEPES and digested in a two-step process with LysC and trypsin as previously described. Digested peptides were desalted using Phenomenex Strata-X polymeric reverse phase extraction cartridges using the following protocol. Cartridges were conditioned with 1 mL 100% acetonitrile, 1 mL 80% acetonitrile/0.5% AA, and 1 mL 0.1% TFA. Peptides were then loaded on to the cartridge at a reduced flow rate and desalted with 5 mL 0.1% TFA followed by 1 mL 0.5% AA. Desalted peptides were eluted using 1 mL 40% acetonitrile/0.5% AA followed by 1 mL 80% acetonitrile/0.5% AA and lyophilized. Digested peptides were quantified using the Pierce™ Quantitative Colorimetric Peptide Assay and […] was aliquoted from each for total protein analysis while the remaining peptide was lyophilized and retained for acetyl-peptide enrichment.
Acetyl-peptide Enrichment: Acetyl-peptides were enriched using the PTMScan® Acetyl-Lysine Motif [Ac-K] Kit according to manufacturer instructions. […]

T1 sequence (P62942 2-108 F37V limits assumed): as the sequence (P62942 2-108 F37V limits assumed) above
T1 sequence (Q09472 2-2414 limits assumed, stated change not applied): as the sequence (Q09472 2-2414 limits assumed, stated change not applied, further chain) above
Sequence of 6xHis-p300-BRD (active motif #31372) (Q09472 1040-1161 limits assumed): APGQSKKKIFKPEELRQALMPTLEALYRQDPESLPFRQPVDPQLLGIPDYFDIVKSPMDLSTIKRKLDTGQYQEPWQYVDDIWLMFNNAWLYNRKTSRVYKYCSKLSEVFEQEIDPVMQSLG
T3 sequence (P62942 2-108 F37V limits assumed): as the sequence (P62942 2-108 F37V limits assumed) above
T3 sequence (Q09472 2-2414 limits assumed, stated change not applied, further chain): as the sequence (Q09472 2-2414 limits assumed, stated change not applied, further chain) above

In test [1], “GST-FKBP12^F36V (from UniProt P62942 2-108)” yielded an AceTAG-1 concentration at maximum ternary complex formation of 1 µM.
As to `CC[C@H](C(=O)N1CCCC[C@H]1C(=O)O[C@H](CCc1ccc(OC)c(OC)c1)c1cccc(OCC(=O)NCCOCCOCCOCCC(=O)NCCOc2ccc(CCc3nc4cc(-c5c(C)noc5C)ccc4n3CCN3CCOCC3)cc2)c1)c1cc(OC)c(OC)c(OC)c1` [AceTAG-2, (R)-3-(3,4-dimethoxyphenyl)-1-(3-((18-(4-(2-(5-(3,5-dimethylisoxazol-4-yl)-1-(2-morpholinoethyl)-1H-benzo[d]imidazol-2-yl)ethyl)phenoxy)-2,15-dioxo-6,9,12-trioxa-3,16-diazaoctadecyl)oxy)phenyl)propyl (S)-1-((S)-2-(3,4,5-trimethoxyphenyl)butanoyl)piperidine-2-carboxylate], on H3.3-FKBP12^F36V, the “acetylation of H3.3” value was “significant acetylation of H3.3”.
The same measure, in the same setting: as for `CC[C@H](C(=O)N1CCCC[C@H]1C(=O)OC(CCc1ccc(OC)c(OC)c1)c1cccc(OCC(=O)NCCCCCCCC(=O)NCCOc2ccc(CCc3nc4cc(-c5c(C)noc5C)ccc4n3CCN3CCOCC3)cc2)c1)c1cc(OC)c(OC)c(OC)c1` (some centres unmarked) [AceTAG-4], the entry is “significant acetylation of H3.3”; as for `CC[C@H](C(=O)N1CCCC[C@H]1C(=O)O[C@H](CCc1ccc(OC)c(OC)c1)c1cccc(OCC(=O)NCCCCCCCC(=O)NCCOc2ccc(CCc3nc4cc(-c5c(C)noc5C)ccc4n3CCN3CCOCC3)cc2)c1)c1cc(OC)c(OC)c(OC)c1` [AceTAG-3, (R)-3-(3,4-dimethoxyphenyl)-1-(3-(2-((8-((2-(4-(2-(5-(3,5-dimethylisoxazol-4-yl)-1-(2-morpholinoethyl)-1H-benzo[d]imidazol-2-yl)ethyl)phenoxy)ethyl)amino)-8-oxooctyl)amino)-2-oxoethoxy)phenyl)propyl (S)-1-((S)-2-(3,4,5-trimethoxyphenyl)butanoyl)piperidine-2-carboxylate], “significant acetylation of H3.3”.
As for `CNC(=O)Nc1ccc2c(c1)CC[C@@]21OC(=O)N(CC(=O)N(Cc2ccc(F)cc2)[C@@H](C)C(F)(F)F)C1=O` [A485, reference compound], the “effect of co-treatment on AceTAG-1 induced p21 expression” value in test [2] was “blocked”.
In the case of `CCCNC(=O)COc1cccc([C@@H](CCc2ccc(OC)c(OC)c2)OC(=O)[C@@H]2CCCCN2C(=O)[C@@H](CC)c2cc(OC)c(OC)c(OC)c2)c1` [FKBP-c, (R)-3-(3,4-dimethoxyphenyl)-1-(3-(2-oxo-2-(propylamino)ethoxy)phenyl)propyl (S)-1-((S)-2-(3,4,5-trimethoxyphenyl)butanoyl)piperidine-2-carboxylate], the “effect of co-treatment on AceTAG-1 induced p53 acetylation” value in test [3] is given as “blockade of induced acetylation”. In addition, in test [2], the “effect of co-treatment on AceTAG-1 induced p21 expression” value is reported as “blocked”. For the same compound, in test [2] (3 μM, compared to 3 μM AceTAG-1, FIG. 7E), the “p21 expression level with ligand alone” value is listed as “neither p300 nor FKBP ligand alone increases p21 expression level”. Besides, in test [4], the “effect of co-treatment on AceTAG-1 induced RelA acetylation” value is given as “blockade of induced acetylation”. Also, the “effect of co-treatment on AceTAG-1 induced acetylation of H3.3-FKBP12^F36V” value at H3.3-FKBP12^F36V (625 nM AceTAG-1 with 50 μM FKBP ligand or 1 μM A485, 2 hr, FIG. 4D) is “blocked”.
In the case of `O=C(CCCCCCC(=O)Nc1ccccc1)NO` [SAHA, Vorinostat, reference compound], the “number of proteins with increased acetylation relative to DMSO” value in test [5] is listed as about 30 proteins.

The record behind these values is patent publication US20240238426A1, “PROTEIN ACYLATION MODULATION BY HETEROBIFUNCTIONAL MOLECULES” (THE SCRIPPS RESEARCH INSTITUTE, priority 2021, published 2024).
